Data from patent US9556165B2 (priority 2012, dated 2017).
Converted amounts (≈) assume the structure as drawn.

What was measured:
Experiment in all cases: MIC determination, broth microdilution (CLSI)
Assay type in all cases: cell-based
E. cloacae 34654 = conditions: for MIC: Enterobacter cloacae, 34654, strain 3
C. freundii K21/3034 = conditions: for MIC: Citrobacter freundii, K21/3034, strain 4
strain 20 = system: strain 20
E. coli ATCC25922 = conditions: for MIC: Escherichia coli, ATCC25922, strain 1
strain 21 = system: strain 21
E. coli J62 = conditions: for MIC: Escherichia coli, J62, strain 17, read-out: strain 17 MIC
E. coli J62-TEM-3 = conditions: for MIC: Escherichia coli, J62TEM3, read-out: strain 18 MIC, strain 18
strain 19 = system: strain 19
M. morganii 126/3048 = conditions: for MIC: Morganella morganii, 126/3048, strain 5
M. catarrhalis ICB489 = conditions: for MIC: Moraxella catarrhalis, ICB489, strain 12
S. aureus 133 = conditions: Staphylococcus aureus, 133, strain 11; read-out: strain 11 MIC
[1] = system: P. aeruginosa 2297-con (AmpC derepressed); conditions: for MIC: Pseudomonas aeruginosa, read-out: strain 8 MIC, strain 8
H. influenzae ATCC 49247 = conditions: Haemophilus influenzae, ATCC49247, strain 13; read-out: strain 13 MIC
[2] = system: P. aeruginosa 2297 (AmpC wt); conditions: for MIC: Pseudomonas aeruginosa, strain 7
B. fragilis 6688 = conditions: Bacteroides fragilis, 6688, strain 15; read-out: strain 15 MIC
S. pneumoniae 113 = conditions: Streptococcus pneumoniae, 113, strain 14; read-out: strain 14 MIC
P. aeruginosa PAO1 = conditions: for MIC: Pseudomonas aeruginosa, PAO1, strain 6
A. baumannii ATCC15308 = conditions: for MIC: Acinetobacter baumannii, ATCC15308, strain 9
K. pneumoniae 60 = conditions: for MIC: Klebsiella pneumoniae, 60, strain 2

SMILES | MIC (E. cloacae 34654) [µg/mL] | MIC (C. freundii K21/3034) [µg/mL] | MIC (strain 20) [µg/mL] | MIC (E. coli ATCC25922) [µg/mL] | MIC (strain 21) [µg/mL] | MIC (E. coli J62) [µg/mL] | MIC (E. coli J62-TEM-3) [µg/mL] | MIC (strain 19) [µg/mL] | MIC (M. morganii 126/3048) [µg/mL] | MIC (M. catarrhalis ICB489) [µg/mL] | MIC (S. aureus 133) [µg/mL] | MIC [1] [µg/mL] | MIC (H. influenzae ATCC 49247) [µg/mL] | MIC [2] [µg/mL] | MIC (B. fragilis 6688) [µg/mL] | MIC (S. pneumoniae 113) [µg/mL] | MIC (P. aeruginosa PAO1) [µg/mL] | MIC (A. baumannii ATCC15308) [µg/mL] | MIC (K. pneumoniae 60) [µg/mL] | other results
C[C@H]1[C@H](NC(=O)/C(=N\OCCOc2ccc(C(=N)N)nn2)c2csc(N)n2)C(=O)N1S(=O)(=O)O [Example 28, (2S,3S)-3-{[(2Z)-2-(2-Amino-1,3-thiazol-4-yl)-2-({2-[(6-carbamimidoylpyridazin-3-yl)oxy]ethoxy}imino)acetyl]amino}-2-methyl-4-oxoazetidine-1-sulfonic acid] | 0.125 (≈ 0.243 µM) | 0.125 (≈ 0.243 µM) | 0.25 (≈ 0.487 µM) | 0.125 (≈ 0.243 µM) | 0.25 (≈ 0.487 µM) | 0.25 (≈ 0.487 µM) | 32 (≈ 62.3 µM) | 0.25 (≈ 0.487 µM) | 0.125 (≈ 0.243 µM) | 0.25 (≈ 0.487 µM) | 0.125 (≈ 0.243 µM) | 32 (≈ 62.3 µM) | 0.5 (≈ 0.974 µM) | 8 (≈ 15.6 µM) | 8 (≈ 15.6 µM) | 2 (≈ 3.89 µM) | 4 (≈ 7.79 µM) | 0.5 (≈ 0.974 µM) | 0.125 (≈ 0.243 µM) | –
C[C@H]1[C@H](NC(=O)/C(=N\OCC(C)(C)Oc2ccc(C(=N)N)cc2)c2csc(N)n2)C(=O)N1S(=O)(=O)O [Example 17, (2S,3S)-3-{[(2Z)-2-(2-Amino-1,3-thiazol-4-yl)-2-{[2-(4-carbamimidoylphenoxy)-2-methyl-propoxy]imino}acetyl]amino}-2-methyl-4-oxoazetidine-1-sulfonic acid] | 2 (≈ 3.71 µM) | 1 (≈ 1.85 µM) | 2 (≈ 3.71 µM) | 2 (≈ 3.71 µM) | 2 (≈ 3.71 µM) | 2 (≈ 3.71 µM) | 32 (≈ 59.3 µM) | 1 (≈ 1.85 µM) | ≤ 0.063 | 2 (≈ 3.71 µM) | 2 (≈ 3.71 µM) | 32 (≈ 59.3 µM) | 1 (≈ 1.85 µM) | 16 (≈ 29.7 µM) | 4 (≈ 7.41 µM) | 2 (≈ 3.71 µM) | 8 (≈ 14.8 µM) | 8 (≈ 14.8 µM) | 2 (≈ 3.71 µM) | –
C[C@H]1[C@H](NC(=O)/C(=N\OCCOc2ccc(C(=N)N)cc2N)c2csc(N)n2)C(=O)N1S(=O)(=O)O [Example 35, (2S,3S)-3-{[(2Z)-2-{[2-(2-Amino-4-carbamimidoylphenoxy)ethoxy]imino}-2-(2-amino-1,3-thiazol-4-yl)acetyl]amino}-2-methyl-4-oxoazetidine-1-sulfonic acid] | 4 (≈ 7.6 µM) | 2 (≈ 3.8 µM) | 8 (≈ 15.2 µM) | 2 (≈ 3.8 µM) | 4 (≈ 7.6 µM) | 4 (≈ 7.6 µM) | 32 (≈ 60.8 µM) | 2 (≈ 3.8 µM) | 1 (≈ 1.9 µM) | 1 (≈ 1.9 µM) | 0.25 (≈ 0.475 µM) | 32 (≈ 60.8 µM) | 1 (≈ 1.9 µM) | 16 (≈ 30.4 µM) | 16 (≈ 30.4 µM) | 32 (≈ 60.8 µM) | 16 (≈ 30.4 µM) | 2 (≈ 3.8 µM) | 2 (≈ 3.8 µM) | –
C[C@H]1[C@H](NC(=O)/C(=N\OCCNc2ccc(C(=N)N)cc2)c2csc(N)n2)C(=O)N1S(=O)(=O)O [Example 8, (2S,3S)-3-{[(2Z)-2-(2-Amino-1,3-thiazol-4-yl)-2-({2-[(4-carbamimidoylphenyl)amino]ethoxy}imino)acetyl]amino}-2-methyl-4-oxoazetidine-1-sulfonic acid] | 2 (≈ 3.92 µM) | 0.5 (≈ 0.979 µM) | 4 (≈ 7.83 µM) | 1 (≈ 1.96 µM) | 4 (≈ 7.83 µM) | 4 (≈ 7.83 µM) | – | 2 (≈ 3.92 µM) | 0.25 (≈ 0.49 µM) | 0.5 (≈ 0.979 µM) | 0.25 (≈ 0.49 µM) | 32 (≈ 62.7 µM) | 1 (≈ 1.96 µM) | 32 (≈ 62.7 µM) | 16 (≈ 31.3 µM) | 8 (≈ 15.7 µM) | 8 (≈ 15.7 µM) | 4 (≈ 7.83 µM) | 0.5 (≈ 0.979 µM) | –
C[C@H]1[C@H](NC(=O)/C(=N\OCCOc2ccc(C(=N)N)nc2)c2csc(N)n2)C(=O)N1S(=O)(=O)O [Example 3, (2S,3S)-3-{[(2Z)-2-(2-Amino-1,3-thiazol-4-yl)-2-({2-[(6-carbamimidoylpyridin-3-yl)oxy]ethoxy}imino)acetyl]amino}-2-methyl-4-oxoazetidine-1-sulfonic acid] | 0.125 (≈ 0.244 µM) | ≤ 0.063 | 0.125 (≈ 0.244 µM) | 0.125 (≈ 0.244 µM) | 0.25 (≈ 0.488 µM) | 0.25 (≈ 0.488 µM) | 16 (≈ 31.2 µM) | 0.125 (≈ 0.244 µM) | 0.125 (≈ 0.244 µM) | 0.125 (≈ 0.244 µM) | ≤ 0.063 | 16 (≈ 31.2 µM) | 0.5 (≈ 0.976 µM) | 4 (≈ 7.8 µM) | 8 (≈ 15.6 µM) | 8 (≈ 15.6 µM) | 2 (≈ 3.9 µM) | 1 (≈ 1.95 µM) | ≤ 0.063 | –
C[C@H]1[C@H](NC(=O)/C(=N\OCCOc2ccc(C(=N)N)cn2)c2csc(N)n2)C(=O)N1S(=O)(=O)O [Example 5, (2S,3S)-3-{[(2Z)-2-(2-Amino-1,3-thiazol-4-yl)-2-({2-[(5-carbamimidoylpyridin-2-yl)oxy]-ethoxy}imino)acetyl]amino}-2-methyl-4-oxoazetidine-1-sulfonic acid] | 0.125 (≈ 0.244 µM) | 0.25 (≈ 0.488 µM) | 0.25 (≈ 0.488 µM) | 0.25 (≈ 0.488 µM) | 0.25 (≈ 0.488 µM) | 0.5 (≈ 0.976 µM) | 16 (≈ 31.2 µM) | 0.25 (≈ 0.488 µM) | 0.125 (≈ 0.244 µM) | 0.25 (≈ 0.488 µM) | 0.125 (≈ 0.244 µM) | 32 (≈ 62.4 µM) | 0.5 (≈ 0.976 µM) | 4 (≈ 7.8 µM) | 8 (≈ 15.6 µM) | 4 (≈ 7.8 µM) | 4 (≈ 7.8 µM) | 1 (≈ 1.95 µM) | ≤ 0.063 | –
C[C@H]1[C@H](NC(=O)/C(=N\OC(COc2ccc(C(=N)N)cc2)C(=O)O)c2csc(N)n2)C(=O)N1S(=O)(=O)O (mixture of isomers) [Example 26B, (2S and 2R)-2-({[(1Z)-1-(2-Amino-1,3-thiazol-4-yl)-2-{[(2S,3S)-2-methyl-4-oxo-1-sulfoazetidin-3-yl]amino}-2-oxoethylidene]amino}oxy)-3-(4-carbamidinoyl-phenoxy)propanoic acid] | – | – | – | – | – | – | – | – | – | – | – | – | – | – | – | – | – | – | – | strain 3 MIC (E. cloacae 34654; strain 3): 1 µg/mL; strain 4 MIC (C. freundii K21/3034; strain 4): 2 µg/mL; strain 20 MIC (strain 20): 2 µg/mL; strain 1 MIC (E. coli ATCC25922; strain 1): 2 µg/mL; strain 21 MIC (strain 21): 2 µg/mL; strain 17 MIC (E. coli J62; strain 17): 2 µg/mL; strain 18 MIC (E. coli J62-TEM-3; strain 18): 32 µg/mL; strain 19 MIC (strain 19): 1 µg/mL; strain 5 MIC (M. morganii 126/3048; strain 5): 0.5 µg/mL; strain 12 MIC (M. catarrhalis ICB489; strain 12): 2 µg/mL; strain 8 MIC ([1]; strain 8): 32 µg/mL; strain 7 MIC [2]: 8 µg/mL; strain 6 MIC (P. aeruginosa PAO1; strain 6): 4 µg/mL; strain 9 MIC (A. baumannii ATCC15308; strain 9): 16 µg/mL; strain 2 MIC (K. pneumoniae 60; strain 2): 0.5 µg/mL
C[C@H]1[C@H](NC(=O)/C(=N\OCc2cc(C(=N)N)cs2)c2csc(N)n2)C(=O)N1S(=O)(=O)O [Example 32, (2S,3S)-3-{[(2Z)-2-(2-Amino-1,3-thiazol-4-yl)-2-(2-[(4-carbamimidoylthiophen-2-yl)methoxy]imino)acetyl]amino}-2-methyl-4-oxoazetidine-1-sulfonic acid] | 0.5 (≈ 1.03 µM) | 0.5 (≈ 1.03 µM) | 2 (≈ 4.1 µM) | 1 (≈ 2.05 µM) | 1 (≈ 2.05 µM) | 2 (≈ 4.1 µM) | 32 (≈ 65.6 µM) | 1 (≈ 2.05 µM) | 0.5 (≈ 1.03 µM) | 0.75 (≈ 1.54 µM) | ≤ 0.063 | – | 0.5 (≈ 1.03 µM) | 32 (≈ 65.6 µM) | 3 (≈ 6.15 µM) | 8 (≈ 16.4 µM) | 16 (≈ 32.8 µM) | 2 (≈ 4.1 µM) | – | –
C[C@H]1[C@H](NC(=O)/C(=N\OCCOc2ccc(C(=N)NO)cc2)c2csc(N)n2)C(=O)N1S(=O)(=O)O [Example 21, (2S,3S)-3-{[(2Z)-2-(2-Amino-1,3-thiazol-4-yl)-2-({2-[4-(N-hydroxycarbamimidoyl)phenoxy]ethoxy}imino)acetyl]amino}-2-methyl-4-oxoazetidine-1-sulfonic acid] | 1 (≈ 1.9 µM) | 0.25 (≈ 0.474 µM) | 1 (≈ 1.9 µM) | 1 (≈ 1.9 µM) | 1 (≈ 1.9 µM) | 2 (≈ 3.79 µM) | 16 (≈ 30.3 µM) | 0.5 (≈ 0.948 µM) | 0.5 (≈ 0.948 µM) | 0.25 (≈ 0.474 µM) | 0.5 (≈ 0.948 µM) | – | 1 (≈ 1.9 µM) | 16 (≈ 30.3 µM) | 32 (≈ 60.7 µM) | 32 (≈ 60.7 µM) | 16 (≈ 30.3 µM) | 8 (≈ 15.2 µM) | 0.25 (≈ 0.474 µM) | –
C[C@H]1[C@H](NC(=O)/C(=N\OCCCOc2ccc(C(=N)N)cc2)c2csc(N)n2)C(=O)N1S(=O)(=O)O [Example 37, (2S,3S)-3-{[(2Z)-2-(2-Amino-1,3-thiazol-4-yl)-2-[{3-(4-carbamimidoylphenoxy)propoxy]imino}acetyl]amino}-2-methyl-4-oxoazetidine-1-sulfonic acid] | 2 (≈ 3.81 µM) | 2 (≈ 3.81 µM) | 2 (≈ 3.81 µM) | 2 (≈ 3.81 µM) | 2 (≈ 3.81 µM) | 4 (≈ 7.61 µM) | – | 2 (≈ 3.81 µM) | 1 (≈ 1.9 µM) | 0.5 (≈ 0.951 µM) | 1 (≈ 1.9 µM) | – | 1 (≈ 1.9 µM) | 8 (≈ 15.2 µM) | 16 (≈ 30.4 µM) | 4 (≈ 7.61 µM) | 8 (≈ 15.2 µM) | 4 (≈ 7.61 µM) | 2 (≈ 3.81 µM) | –
